Reference: patent US10798941B2, “Microbiocidal oxadiazole derivatives” (SYNGENTA PARTICIPATIONS AG, priority 2016, dated 2020)

How the values were obtained:
[1] = tested on: Puccinia recondita f. Sp. Tritici; assay: Puccinia recondita f. sp. tritici / wheat / leaf disc curative (brown rust); assay type: in vivo; details: foliar, 144 h, 200 ppm in the applied formulation, wheat leaf segments cv. Kanzler, applied 1 day after inoculation, assessed 6 to 8 days after application, vs untreated, read-out: disease control
Summary of the method: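 Compound applied 1 day after spore inoculation of wheat cv. Kanzler leaf segments on agar (dark, 19 °C, 75% RH before treatment). After further incubation under 12 h light/12 h dark at 19 °C and 75% RH, disease control relative to untreated segments rated 6–8 days post-application.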

Phakopsora pachyrhizi = Phakopsora pachyrhizi / soybean / leaf disc preventative (Asian soybean rust); assay type: in vivo; details: foliar, 288 h, 200 ppm in the applied formulation, soybean leaf disks, inoculated one day after application, assessed 12 to 14 days after application, vs untreated, read-out: disease control
Summary of the method: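 Read-out is percent disease control relative to untreated check discs, assessed once untreated discs show adequate disease, 12 to 14 days after application. Compounds, tested at 200 ppm in the applied formulation, are sprayed onto soybean leaf discs one day before inoculation with a spore suspension.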

[2] = tested on: Glomerella Lagenarium (Colletotrichum Lagenarium); assay: Glomerella lagenarium (Colletotrichum lagenarium) liquid culture / cucumber / preventative (anthracnose); assay type: cell-based; details: Colletotrichum orbiculare; 20 ppm in the applied formulation; liquid culture in PDB, 24° C., inhibition of growth measured photometrically 3 to 4 days after application, vs untreated; read-out: disease control
Summary of the method: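 Conidia from cryogenic storage were mixed into potato dextrose broth. This was added to compound diluted from DMSO into 0.025% Tween20, tested at 20 ppm. Plates were incubated in the dark at 24 °C and 96% relative humidity, and growth was read photometrically after 2–7 days as % activity versus untreated check.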

Uromyces viciae-Fabae = assay: Uromyces viciae-fabae / field bean / leaf disc preventative (faba-bean rust); assay type: in vivo; details: foliar, 288 h, 100 ppm in the applied formulation, field bean leaf discs, inoculated two hours after application, assessed 12 days after application, vs untreated, read-out: disease control
Procedure: Leaf disks or leaf segments of various plant species are cut from plants grown in a greenhouse. The cut leaf disks or segments are placed in multiwell plates (24-well format) onto water agar. The leaf disks are sprayed with a test solution before (preventative) or after (curative) inoculation. Compounds to be tested are prepared as DMSO solutions (max. 10 mg/ml) which are diluted to the appropriate concentration with 0.025% Tween20 just before spraying. The inoculated leaf disks or segments are incubated under defined conditions (temperature, relative humidity, light, etc.) according to the respective test system. A single evaluation of disease level is carried out 3 to 14 days after inoculation, depending on the pathosystem. Percent disease control relative to the untreated check leaf disks or segments is then calculated.
Field bean leaf discs are placed on water agar in multiwell plates (96-well format) and 10 μl of the formulated test compound diluted in acetone and a spreader pipetted onto the leaf disc. Two hours after application leaf discs are inoculated by spraying a spore suspension on the lower leaf surface. The leaf discs are incubated in a climate cabinet at 22° C. with 18 hour day and 70% relative humidity. The activity of a compound is assessed as percent disease control compared to untreated when an appropriate level of disease damage appears in untreated check leaf disks (12 days after application).
The following compounds at 100 ppm in the applied formulation give at least 80% disease control in this test when compared to untreated control leaf discs under the same conditions, which show extensive disease development.

[3] = tested on: Puccinia recondita f. Sp. Tritici; assay: Puccinia recondita f. sp. tritici / wheat / leaf disc preventative (brown rust); assay type: in vivo; details: foliar, 168 h, 200 ppm in the applied formulation, wheat leaf segments cv. Kanzler, preventative, inoculated 1 day after application, assessed 7 to 9 days after application, vs untreated, read-out: disease control
Summary of the method: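 Preventative leaf-segment test: spray application of diluted formulated compound on wheat cv. Kanzler, spore inoculation after 1 day. Percent control relative to untreated segments rated 7 to 9 days post-application, with incubation at 19° C, 75% relative humidity, 12 h photoperiod.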

| SMILES | melting point | pest or weed control at 200 ppm [1] | pest or weed control at 200 ppm (Phakopsora pachyrhizi) | inhibition of growth at 20 ppm [2] | pest or weed control at 100 ppm (Uromyces viciae-Fabae) | pest or weed control at 200 ppm [3] |
| --- | --- | --- | --- | --- | --- | --- |
| CCn1cc(-c2cn(Cc3ccc(-c4noc(C(F)(F)F)n4)cc3)nn2)c(C)n1 [Compound 1.1, 3-[4-[[4-(1-ethyl-3-methyl-pyrazol-4-yl)triazol-1-yl]methyl]phenyl]-5-(trifluoromethyl)-1,2,4-oxadiazole] | 116.2 to 118.2 °C | ≥ 80% | ≥ 80% | ≥ 80% | ≥ 80% | ≥ 80% |
| Cn1cncc1-c1cn(Cc2ccc(-c3noc(C(F)(F)F)n3)cc2)nn1 [Compound 1.6, 3-[4-[[4-(3-methylimidazol-4-yl)triazol-1-yl]methyl]phenyl]-5-(trifluoromethyl)-1,2,4-oxadiazole] | 108.7 to 110.3 °C | ≥ 80% | ≥ 80% | ≥ 80% | ≥ 80% | ≥ 80% |
| FC(F)(F)c1nc(-c2ccc(Cn3cc(-c4ccsc4)nn3)cc2)no1 [Compound 1.8, 3-[4-[[4-(3-thienyl)triazol-1-yl]methyl]phenyl]-5-(trifluoromethyl)-1,2,4-oxadiazole] | 160.2 to 163.9 °C | ≥ 80% |  | ≥ 80% | ≥ 80% | ≥ 80% |
| FC(F)(F)c1nc(-c2ccc(Cn3cc(-c4ccccc4)nn3)cc2)no1 [Compound 1.4, 3-[4-[(4-phenyltriazol-1-yl)methyl]phenyl]-5-(trifluoromethyl)-1,2,4-oxadiazole] | 161.5 to 164.4 °C |  | ≥ 80% | ≥ 80% | ≥ 80% | ≥ 80% |
| CC(=O)OCc1cn(Cc2ccc(-c3noc(C(F)(F)F)n3)cc2)nn1 [Compound 1.7, [1-[[4-[5-(trifluoromethyl)-1,2,4-oxadiazol-3-yl]phenyl]methyl]triazol-4-yl]methyl acetate] | 157.4 to 160.4 °C |  | ≥ 80% | ≥ 80% | ≥ 80% | ≥ 80% |
| FC(F)(F)c1nc(-c2ccc(Cn3cc(C4CC4)nn3)cc2)no1 [Compound 1.5, 3-[4-[(4-cyclopropyltriazol-1-yl)methyl]phenyl]-5-(trifluoromethyl)-1,2,4-oxadiazole] | 115.5 to 117.2 °C | ≥ 80% | ≥ 80% | ≥ 80% | ≥ 80% | ≥ 80% |
| CCOCc1cn(Cc2ccc(-c3noc(C(F)(F)F)n3)cc2)nn1 [Compound 1.11, 3-[4-[[4-(ethoxymethyl)triazol-1-yl]methyl]phenyl]-5-(trifluoromethyl)-1,2,4-oxadiazole] | 115.7 to 117.6 °C | ≥ 80% | ≥ 80% |  | ≥ 80% | ≥ 80% |
| FC(F)(F)c1nc(-c2ccc(Cn3nncc3-c3ccccc3)cc2)no1 [Compound 1.3, 3-[4-[(5-phenyltriazol-1-yl)methyl]phenyl]-5-(trifluoromethyl)-1,2,4-oxadiazole] |  | ≥ 80% | ≥ 80% | ≥ 80% | ≥ 80% | ≥ 80% |
| Cc1cc(C(F)(F)F)nn1Cc1ccc(-c2noc(C(F)(F)F)n2)cc1 [Compound 1.20, 3-[4-[[5-methyl-3-(trifluoromethyl)pyrazol-1-yl]methyl]phenyl]-5-(trifluoromethyl)-1,2,4-oxadiazole] |  |  | ≥ 80% | ≥ 80% | ≥ 80% |  |
| CC1(C)CN=C(Cc2ccc(-c3noc(C(F)(F)F)n3)cc2)O1 [Compound 1.10, 3-[4-[(5,5-dimethyl-4H-oxazol-2-yl)methyl]phenyl]-5-(trifluoromethyl)-1,2,4-oxadiazole] |  | ≥ 80% | ≥ 80% | ≥ 80% | ≥ 80% | ≥ 80% |
| CC(C)(C)OC(=O)NCc1cn(Cc2ccc(-c3noc(C(F)(F)F)n3)cc2)nn1 [Compound 1.9, tert-butyl N-[[1-[[4-[5-(trifluoromethyl)-1,2,4-oxadiazol-3-yl]phenyl]methyl]triazol-4-yl]methyl]carbamate] | 134.7 to 136.9 °C | ≥ 80% | ≥ 80% | ≥ 80% | ≥ 80% | ≥ 80% |
| COc1ccc(-c2cn(Cc3ccc(-c4noc(C(F)(F)F)n4)cc3)nn2)cc1 [Compound 1.12, 3-[4-[[4-(4-methoxyphenyl)triazol-1-yl]methyl]phenyl]-5-(trifluoromethyl)-1,2,4-oxadiazole] | 187.7 to 196.2 °C |  |  |  | ≥ 80% | ≥ 80% |

The next lines start with results.

| melting point | SMILES | pest or weed control at 200 ppm [1] | pest or weed control at 200 ppm (Phakopsora pachyrhizi) | inhibition of growth at 20 ppm [2] | pest or weed control at 100 ppm (Uromyces viciae-Fabae) | pest or weed control at 200 ppm [3] |
| --- | --- | --- | --- | --- | --- | --- |
| 185.3 to 189 °C | Fc1ccc(-c2cn(Cc3ccc(-c4noc(C(F)(F)F)n4)cc3)nn2)cc1 [Compound 1.13, 3-[4-[[4-(4-fluorophenyl)triazol-1-yl]methyl]phenyl]-5-(trifluoromethyl)-1,2,4-oxadiazole] |  |  |  | ≥ 80% |  |
| 53 to 58 °C | FC(F)c1cc(C(F)F)n(Cc2ccc(-c3noc(C(F)(F)F)n3)cc2)n1 [Compound 1.17, 3-[4-[[3,5-bis(difluoromethyl)pyrazol-1-yl]methyl]phenyl]-5-(trifluoromethyl)-1,2,4-oxadiazole] |  | ≥ 80% | ≥ 80% | ≥ 80% |  |
| 200.6 to 204.2 °C | Cc1ccc(-c2cn(Cc3ccc(-c4noc(C(F)(F)F)n4)cc3)nn2)cc1 [Compound 1.14, 3-[4-[[4-(p-tolyl)triazol-1-yl]methyl]phenyl]-5-(trifluoromethyl)-1,2,4-oxadiazole] |  |  |  | ≥ 80% |  |
| 72 to 77 °C | FC(F)(F)c1nc(-c2ccc(Cn3cncn3)cc2)no1 [Compound 1.19, 3-[4-(1,2,4-triazol-1-ylmethyl)phenyl]-5-(trifluoromethyl)-1,2,4-oxadiazole] | ≥ 80% | ≥ 80% | ≥ 80% | ≥ 80% | ≥ 80% |
| 45 to 55 °C | FC(F)(F)c1nc(-c2ccc(Cn3ccnc3)cc2)no1 [Compound 1.18, 3-[4-(imidazol-1-ylmethyl)phenyl]-5-(trifluoromethyl)-1,2,4-oxadiazole] | ≥ 80% | ≥ 80% | ≥ 80% | ≥ 80% | ≥ 80% |
| 107.6 to 109.5 °C | FC(F)(F)c1nc(-c2ccc(Cn3ccnn3)cc2)no1 [Compound 1.32, 3-[4-(triazol-1-ylmethyl)phenyl]-5-(trifluoromethyl)-1,2,4-oxadiazole] | ≥ 80% | ≥ 80% | ≥ 80% |  | ≥ 80% |
| 135 to 137 °C | CON(C)C(=O)c1cn(Cc2ccc(-c3noc(C(F)(F)F)n3)cc2)nn1 [Compound 1.275, N-methoxy-N-methyl-1-[[4-[5-(trifluoromethyl)-1,2,4-oxadiazol-3-yl]phenyl]methyl]triazole-4-carboxamide] | ≥ 80% | ≥ 80% | ≥ 80% |  | ≥ 80% |
